Test results taken from patent US10457976B2, “Preparing antibodies from CHO cell cultures for conjugation” (SEATTLE GENETICS, INC., priority 2013, dated 2019).

System: QSOX1 sulfhydryl oxidase (oxidizing activity in lot DEVNKB-1)
Assay: Sulfhydryl oxidizing activity of lot DEVNKB-1 with additives (ferrous oxidation xylenol orange, FOX, assay)
Assay type: biochemical, Chinese hamster
Description: Further to characterize the oxidizing activity in lot DEVNKB-1, the lot was tested for sulfhydryl oxidizing activity using the ferrous oxidation xylenol orange (FOX) assay. Sulfhydryl oxidases catalyze the following reaction: 2R—SH+O2→R—S—S—R+H2O2 As the reaction proceeds, oxygen is consumed and hydrogen peroxide is produced. The hydrogen peroxide by-product can be detected readily and reliably, and thus serves as a proxy for sulfhydryl oxidase activity. In the FOX assay, hydrogen peroxide oxidizes ferrous iron (Fe^2+) to produce ferric iron (Fe^3+). The […] complexes with xylenol orange to form a compound that absorbs 560 nm light. Thus, by monitoring absorption of 560 nm light (e.g., using a spectrophotometer), the amount of sulfhydryl oxidizing activity in a sample can be determined. The value of a negative control is compared to the value of the test sample by determining the difference in the 560 nm reading. If the resulting value is greater than 0.1 absorbance units, then the samples is positive for oxidizing impurity. […] Addition of both DEVNKB-1 and 1 mM Zn^2+, however, was only 0.008. […] This is consistent with the oxidizing agent having a flavin-dependent sulfhydryl oxidase domain, such as QSOX1.
Further assays were performed to see whether EDTA could reverse the Zn^2+-dependent elimination of oxidizing activity in lot DEVNKB-1. In these experiments, Zn^2+ was added to the assay buffer, either with or without EDTA. In addition, assay buffer having EDTA was evaluated. […] Addition of both Zn^2+ and additional EDTA, however, reduced the oxidizing activity by only 6%. Thus, the EDTA effectively reversed the Zn^2+-dependent inhibition of oxidizing activity. Again, this is what is expected for an oxidizing agent that has a flavin-dependent sulfhydryl oxidase domain, such as QSOX1.

[1] = Table 2, additive in assay buffer, with or without additional EDTA
[2] = Table 2, relative to assay buffer with additional EDTA (100%)

Difference (absorption without minus with DEVNKB-1) [1] | % Activity [2] [%] | Difference (absorption without minus with DEVNKB-1) (Table 1, additive 1 mM, 560 nm absorption) | Difference (absorption without minus with DEVNKB-1) (Table 1, additive 1 mM, 560 nm absorption, listed as Zn^2+) | % Activity (Table 1, additive 1 mM, relative to DEVNKB-1 without additive) [%] | reduction of oxidizing activity associated with lot DEVNKB-1 (relative to assay buffer that contained additional EDTA) [%] | Structure (SMILES)
0.572 | 100 |  |  |  |  | O=C(O)CN(CCN(CC(=O)O)CC(=O)O)CC(=O)O [EDTA]
0.03097 | 5 | 0.0079 | 0.008 | 1 | 95 | [Zn+2] [Zn2+]
